Measurements: PubChem BioAssay AID1259411 (Chemical Carcinogenesis Research Information System (CCRIS), 2018)
The source made the active and inactive calls. The rule behind the calls is not given here.

Tested on: rodent carcinogenicity bioassays, tumor incidence
Assay: CCRIS carcinogenicity studies
How it was run: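 Archive of carcinogenicity, mutagenicity, tumor promotion and tumor inhibition results drawn from journals, NCI reports and other sources, expert-reviewed; covers 1985-2011 and is no longer updated.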

## COc1cc(-c2ccc(N=C=O)c(OC)c2)ccc1N=C=O
Species: MOUSE, Strain/Sex: B6C3F1/FEMALE, Route: ORAL, Dose: 0, 22000, 44000 PPM IN DIET FOR 78 WK (STUDY DURATION: 103 WK), Dose: 0, 22000, 44000 PPM IN DIET FOR 78 WK (STUDY DURATION: 103 WK)
  carcinogen call: inactive; negative
Species: MOUSE, Strain/Sex: B6C3F1/MALE, Route: ORAL, Dose: 0, 22000, 44000 PPM IN DIET FOR 78 WK (STUDY DURATION: 103 WK), Dose: 0, 22000, 44000 PPM IN DIET FOR 78 WK (STUDY DURATION: 103 WK)
  carcinogen call: inactive; negative
Species: RAT, Strain/Sex: F344/FEMALE, Route: GAVAGE, ORAL, Dose: 0, 1500, 3000 MG/KG FOR 22 WK, THEN 22000, 44000 PPM IN DIET FOR 56 WK (STUDY DURATION: 104 WK), Dose: 0, 1500, 3000 MG/KG FOR 22 WK, THEN 22000, 44000 PPM IN DIET FOR 56 WK (STUDY DURATION: 104 WK), Tumor Site: Type of Lesion: HEMATOPOIETIC SYSTEM (LEUKEMIA), UTERUS: ENDOMETRIAL STROMAL POLYP, EAR (ZYMBAL GLAND AND SKIN OF EAR): SQUAMOUS CELL CA, Tumor Site: Type of Lesion: HEMATOPOIETIC SYSTEM (LEUKEMIA), UTERUS: ENDOMETRIAL STROMAL POLYP, EAR (ZYMBAL GLAND AND SKIN OF EAR): SQUAMOUS CELL CA
  carcinogen call: active; positive
Species: RAT, Strain/Sex: F344/MALE, Route: GAVAGE, ORAL, Dose: 0, 1500, 3000 MG/KG FOR 22 WK, THEN 22000, 44000 PPM IN DIET FOR 56 WK (STUDY DURATION: 104 WK), Dose: 0, 1500, 3000 MG/KG FOR 22 WK, THEN 22000, 44000 PPM IN DIET FOR 56 WK (STUDY DURATION: 104 WK), Tumor Site: Type of Lesion: INTEGUMENTARY SYSTEM (SKIN (EXCLUDING SKIN OF EAR)): PAPILLOMA (NOS) OR BASAL CELL TUMOR OR TRICHOEPITHELIOMA OR SEBACEO
  carcinogen call: active; positive

## O=S(=O)(O)c1ccc2c(N=Nc3ccc(S(=O)(=O)O)c4ccccc34)c(O)c(S(=O)(=O)O)cc2c1
Species: MOUSE, Strain/Sex: SWISS-WEBSTER/FEMALE, Route: DERMAL, Dose: 0, 1% IN 0.1 ML DISTILLED WATER 1/WK FOR 19.5 MO (STUDY DURATION: 19.5 MO)
  carcinogen call: inactive; negative
Species: MOUSE, Strain/Sex: SWISS-WEBSTER/MALE, Route: DERMAL, Dose: 0, 1% IN 0.1 ML DISTILLED WATER 1/WK FOR 19.5 MO (STUDY DURATION: 19.5 MO)
  carcinogen call: inactive; negative
Species: RAT, Strain/Sex: WISTAR/FEMALE, Route: ORAL, Dose: 0, 50, 250, 1250 MG/KG IN THE DIET TO PUPS OF PARENTS EXPOSED TO THE SAME DOSE LEVELS FOR 60 D PRIOR TO MATING AND CONTI, Dose: 0, 50, 250, 1250 MG/KG IN THE DIET TO PUPS OF PARENTS EXPOSED TO THE SAME DOSE LEVELS FOR 60 D PRIOR TO MATING AND CONTI
  carcinogen call: inactive; negative
Species: RAT, Strain/Sex: WISTAR/MALE, Route: ORAL, Dose: 0, 50, 250, 1250 MG/KG IN THE DIET TO PUPS OF PARENTS EXPOSED TO THE SAME DOSE LEVELS FOR 60 D PRIOR TO MATING AND CONTI, Dose: 0, 50, 250, 1250 MG/KG IN THE DIET TO PUPS OF PARENTS EXPOSED TO THE SAME DOSE LEVELS FOR 60 D PRIOR TO MATING AND CONTI
  carcinogen call: inactive; negative

## Cc1ccc(C)c(OCCCC(C)(C)C(=O)O)c1
Species: RAT, Strain/Sex: STRAIN-CD/MALE, Route: ORAL, Dose: 30, 300 MG/KG IN DIET FOR 2 YR, Tumor Site: Type of Lesion: LIVER: NEOPLASTIC NODULE, CARCINOMA, TESTES: INTERSTITIAL CELL TUMOR
  carcinogen call: active; positive

## CSC(=O)c1cccc2nnsc12
Species: Mouse, Strain/Sex: Tif:MAGf (SPF) (NIH x MAG hybrid)/Female, Route: Oral (diet), Dose: 0, 10, 100, 2000, 6000 ppm (0; 1.14; 10.8; 234; 696 mg/kg/day) for 18 mo, Dose: 0, 10, 100, 2000, 6000 ppm (0; 1.14; 10.8; 234; 696 mg/kg/day) for 18 mo
  carcinogen call: inactive; negative
Species: Mouse, Strain/Sex: Tif:MAGf (SPF) (NIH x MAG hybrid)/Male, Route: Oral, Dose: 0, 10, 100, 2000, 6000 ppm (0; 1.14; 11.1; 237; 698 mg/kg/day) in feed for 18 mo, Dose: 0, 10, 100, 2000, 6000 ppm (0; 1.14; 11.1; 237; 698 mg/kg/day) in feed for 18 mo
  carcinogen call: inactive; negative
Species: Rat, Strain/Sex: Tif:Ralf (SPF) (Rll/1 x Rll/2 hybrid)/Female, Route: Oral, Dose: 0, 20, 200, 2500, 7500 ppm (0; 0.90; 9.08; 111; 388 mg/kg/day) in feed for 2 yr, Dose: 0, 20, 200, 2500, 7500 ppm (0; 0.90; 9.08; 111; 388 mg/kg/day) in feed for 2 yr
  carcinogen call: inactive; negative
Species: Rat, Strain/Sex: Tif:Ralf (SPF) (Rll/1 x Rll/2 hybrid)/Male, Route: Oral, Dose: 0, 20, 200, 2500, 7500 ppm (0; 0.77; 7.77; 96.9; 312 mg/kg/day) in feed for 2 years, Dose: 0, 20, 200, 2500, 7500 ppm (0; 0.77; 7.77; 96.9; 312 mg/kg/day) in feed for 2 years, Tumor Site: Type of Lesion: Small intestine: Mucinous carcinoma (1/60; 1/59; 2/59 at three highest doses)
  carcinogen call: active; positive; dpr reviewer notes that only 1 case of mucinous carcinoma has been see

## c1ccc2c(c1)ccc1c2ccc2c3ccccc3ccc21
Species: MOUSE, Strain/Sex: NMRI/FEMALE, Route: DERMAL, Dose: 0, 136, 448, 1358 NMOL (TOTAL DOSE) APPLIED AS 1 DROP OF ACETONE SOLUTION 3/WK FOR DURATION OF STUDY (STUDY DURATION: 11, Dose: 0, 136, 448, 1358 NMOL (TOTAL DOSE) APPLIED AS 1 DROP OF ACETONE SOLUTION 3/WK FOR DURATION OF STUDY (STUDY DURATION: 11, Tumor Site: Type of Lesion: SKIN: PAPILLOMA
  carcinogen call: active; positive
Species: MOUSE, Strain/Sex: NMRI/FEMALE, Route: SUBCUTANEOUS, Dose: 0, 36, 40, 108, 308, 399 NMOL IN TRICAPRYLIN ONCE (STUDY DURATION: 112 WK), Dose: 0, 36, 40, 108, 308, 399 NMOL IN TRICAPRYLIN ONCE (STUDY DURATION: 112 WK), Tumor Site: Type of Lesion: INJECTION SITE: FIBROSARCOMA
  carcinogen call: active; positive
Species: MOUSE, Strain/Sex: NMRI/FEMALE, Route: SUBCUTANEOUS, Dose: 0, 40, 400 NMOL IN 0.05 ML OF AN AQUEOUS SOLUTION CONTAINING 1% (W/W) GELATIN 0.9% (W/W) SODIUM CHLORIDE AND 0.4% (W/W), Dose: 0, 40, 400 NMOL IN 0.05 ML OF AN AQUEOUS SOLUTION CONTAINING 1% (W/W) GELATIN 0.9% (W/W) SODIUM CHLORIDE AND 0.4% (W/W), Tumor Site: Type of Lesion: LUNG: ADENOMA
  carcinogen call: active; positive

## Cc1ccc2cc3c(ccc4ccccc43)c3c2c1C=C3
Species: MOUSE, Strain/Sex: SWISS/FEMALE, Route: DERMAL, Dose: 0.2 UMOL IN 33.4 µL ACETONE TO SHAVED DORSAL SKIN 2/WK FOR 20 WK (STUDY DURATION: 52 WK), Tumor Site: Type of Lesion: SKIN: PAPILLOMA, KERATOACANTHOMA, EPIDERMAL CARCINOMA
  carcinogen call: active; positive

## CC(=O)OC1CC(C)OC(C)O1 (configuration not stated)
Species: MOUSE, Strain/Sex: B6C3F1/FEMALE, Route: GAVAGE, Dose: 0, 250, 500 MG/KG IN CORN OIL 5 D/WK FOR 103 WK (STUDY DURATION: 105 WK), Dose: 0, 250, 500 MG/KG IN CORN OIL 5 D/WK FOR 103 WK (STUDY DURATION: 105 WK)
  carcinogen call: inactive; negative
Species: MOUSE, Strain/Sex: B6C3F1/MALE, Route: GAVAGE, Dose: 0, 250, 500 MG/KG IN CORN OIL 5 D/WK FOR 103 WK (STUDY DURATION: 105 WK), Dose: 0, 250, 500 MG/KG IN CORN OIL 5 D/WK FOR 103 WK (STUDY DURATION: 105 WK), Tumor Site: Type of Lesion: FORESTOMACH: SQUAMOUS PAPILLOMA OR SQUAMOUS CELL CARCINOMA
  carcinogen call: equivocal
Species: RAT, Route: ORAL, Tumor Site: Type of Lesion: LIVER
  carcinogen call: active; positive
Species: RAT, Strain/Sex: F344/FEMALE, Route: GAVAGE, Dose: 0, 125, 250 MG/KG IN CORN OIL 5 D/WK FOR 103 WK (STUDY DURATION: 105 WK), Dose: 0, 125, 250 MG/KG IN CORN OIL 5 D/WK FOR 103 WK (STUDY DURATION: 105 WK)
  carcinogen call: inactive; negative
Species: RAT, Strain/Sex: F344/MALE, Route: GAVAGE, Dose: 0, 62.5, 125 MG/KG IN CORN OIL 5 D/WK FOR 103 WK (STUDY DURATION: 105 WK), Dose: 0, 62.5, 125 MG/KG IN CORN OIL 5 D/WK FOR 103 WK (STUDY DURATION: 105 WK)
  carcinogen call: inactive; negative
